Experimental findings from patent publication US6399629B1, “Efflux pump inhibitors” (priority 1998, dated 2002) are described below.

Structures are written as SMILES.

The experiment relates to Pseudomonas aeruginosa PAM1001. In words: checkerboard assay (broth microdilution): levofloxacin MIC in presence of efflux pump inhibitor. It is filed as cell-based. In short, it runs like this: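 Reduction of levofloxacin MIC by an efflux pump inhibitor measured against Pseudomonas aeruginosa PAM1001. Each microdilution well held a unique combination of levofloxacin and inhibitor (max 40 μg/mL) in MHB, inoculum 5×10^5 CFU/mL. Readout after 20 h, 35° C: OD650 plus visual inspection.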
On the technique in general: Broth dilution looks for growth in wells or tubes with falling amounts of substance.

`NC[C@@H]1CN[C@@H](C(=O)N[C@H](CCc2ccccc2)C(=O)NCc2cnc3ccccc3c2)C1` [Compound M32]: the “Levofloxacin MIC Against P. aerugiuosa PAM1001 in Presence of Efflux Pump Inhibitor (EPI), Minimum Inhibitory Concentration” value was 4 µg/mL (EPI Conc. 0 μg/mL); 4 µg/mL (EPI Conc. 0.625 μg/mL); 4 µg/mL (EPI Conc. 1.25 μg/mL); 4 µg/mL (EPI Conc. 2.5 μg/mL); 2 µg/mL (EPI Conc. 5 μg/ mL); 1 µg/mL (EPI Conc. 10 μg/mL). In addition, the “Levofloxacin MIC Against P. aerugiuosa PAM1001 in Presence of Efflux Pump Inhibitor (EPI), Minimum Inhibitory Concentration” value reads like this: (EPI Conc. 20 μg/mL) 0.25 µg/mL; (EPI Conc. 40 μg/mL) 0.25 µg/mL.

In the case of `CC(C)C[C@@H](NC(=O)[C@H]1C[C@H](CN)CN1)C(=O)Nc1cnc2ccccc2c1` [Compound M34, (2R,4R)-4-(Aminomethyl)-N-[(1R)-3-methyl-1-(3-quinolylcarbamoly)butyl]-2-pyrrolidinecarboxamide], the “Levofloxacin MIC Against P. aerugiuosa PAM1001 in Presence of Efflux Pump Inhibitor (EPI), Minimum Inhibitory Concentration” value by setting is: (EPI Conc. 0 μg/mL) 4 µg/mL; (EPI Conc. 0.625 μg/mL) 4 µg/mL; (EPI Conc. 1.25 μg/mL) 4 µg/mL; (EPI Conc. 2.5 μg/mL) 4 µg/mL; (EPI Conc. 5 μg/ mL) 4 µg/mL; (EPI Conc. 10 μg/mL) 2 µg/mL. Also, the “Levofloxacin MIC Against P. aerugiuosa PAM1001 in Presence of Efflux Pump Inhibitor (EPI), Minimum Inhibitory Concentration” value runs as follows: (EPI Conc. 20 μg/mL) 1 µg/mL; (EPI Conc. 40 μg/mL) 0.5 µg/mL.

On to `NC[C@@H]1CN[C@@H](C(=O)N[C@H](CCc2ccccc2)C(=O)Nc2cnc3ccc(F)cc3c2)C1` [Compound M35, (2R,4R)-4-(Aminomethyl)-N-[(1R)-3-pheyl-1-(6-fluoro-3-quinolylcarbamoyl)propyl]-2-pyrrolidinecarboxamide], for which the “Levofloxacin MIC Against P. aerugiuosa PAM1001 in Presence of Efflux Pump Inhibitor (EPI), Minimum Inhibitory Concentration” value reads like this: (EPI Conc. 0 μg/mL) 4 µg/mL; (EPI Conc. 0.625 μg/mL) 4 µg/mL; (EPI Conc. 1.25 μg/mL) 4 µg/mL; (EPI Conc. 2.5 μg/mL) 4 µg/mL; (EPI Conc. 5 μg/ mL) 2 µg/mL; (EPI Conc. 10 μg/mL) 0.5 µg/mL. In addition, the “Levofloxacin MIC Against P. aerugiuosa PAM1001 in Presence of Efflux Pump Inhibitor (EPI), Minimum Inhibitory Concentration” value was found to be 0.03 µg/mL (EPI Conc. 20 μg/mL) and 0.03 µg/mL (EPI Conc. 40 μg/mL).

As to `NC[C@@H]1CN[C@@H](C(=O)N[C@H](CCc2ccccc2)C(=O)Nc2cc(Cl)ccc2O)C1` [Compound M39, (2R,4R)-4-(Aminomethyl)-N-[(1R)-3-pheyl-1-(5-chloro-2-hydroxyphenylcarbamoyl)propyl]-2-pyrrolidinecarboxamide], the “Levofloxacin MIC Against P. aerugiuosa PAM1001 in Presence of Efflux Pump Inhibitor (EPI), Minimum Inhibitory Concentration” value (EPI Conc. 0 μg/mL) worked out at 4 µg/mL; the “Levofloxacin MIC Against P. aerugiuosa PAM1001 in Presence of Efflux Pump Inhibitor (EPI), Minimum Inhibitory Concentration” value (EPI Conc. 0.625 μg/mL) came out at 4 µg/mL; the “Levofloxacin MIC Against P. aerugiuosa PAM1001 in Presence of Efflux Pump Inhibitor (EPI), Minimum Inhibitory Concentration” value (EPI Conc. 1.25 μg/mL) was found to be 2 µg/mL; the “Levofloxacin MIC Against P. aerugiuosa PAM1001 in Presence of Efflux Pump Inhibitor (EPI), Minimum Inhibitory Concentration” value (EPI Conc. 2.5 μg/mL) is 0.5 µg/mL; the “Levofloxacin MIC Against P. aerugiuosa PAM1001 in Presence of Efflux Pump Inhibitor (EPI), Minimum Inhibitory Concentration” value (EPI Conc. 5 μg/ mL) is 0.25 µg/mL; the “Levofloxacin MIC Against P. aerugiuosa PAM1001 in Presence of Efflux Pump Inhibitor (EPI), Minimum Inhibitory Concentration” value (EPI Conc. 10 μg/mL) amounted to 0.015 µg/mL. For the same compound, the “Levofloxacin MIC Against P. aerugiuosa PAM1001 in Presence of Efflux Pump Inhibitor (EPI), Minimum Inhibitory Concentration” value is, setting by setting: (EPI Conc. 20 μg/mL) 0.015 µg/mL; (EPI Conc. 40 μg/mL) 0.015 µg/mL.

For the compound `NCC(=O)N[C@@H]1CN[C@@H](C(=O)NC(Cc2ccccc2)C(=O)Nc2cnc3ccccc3c2)C1` (stereo partly drawn) [Compound M41, (2R,4S0-4-(2-Aminoacetamideo)-N-(2-phenylethyl)-N-(3-quinolylcarbamoyl)ethyl]-2-pyrrolidinecarboxamide], the “Levofloxacin MIC Against P. aerugiuosa PAM1001 in Presence of Efflux Pump Inhibitor (EPI), Minimum Inhibitory Concentration” value is 4 µg/mL (EPI Conc. 0 μg/mL); 4 µg/mL (EPI Conc. 0.625 μg/mL); 2 µg/mL (EPI Conc. 1.25 μg/mL); 2 µg/mL (EPI Conc. 2.5 μg/mL); 0.25 µg/mL (EPI Conc. 5 μg/ mL); 0.008 µg/mL (EPI Conc. 10 μg/mL). Further, the “Levofloxacin MIC Against P. aerugiuosa PAM1001 in Presence of Efflux Pump Inhibitor (EPI), Minimum Inhibitory Concentration” value worked out at 0.008 µg/mL (EPI Conc. 20 μg/mL) and 0.008 µg/mL (EPI Conc. 40 μg/mL).

On to `NCC(=O)N[C@H]1CN[C@@H](C(=O)N(CCc2ccccc2)CC(=O)Nc2cnc3ccccc3c2)C1` [Compound M46], for which the “Levofloxacin MIC Against P. aerugiuosa PAM1001 in Presence of Efflux Pump Inhibitor (EPI), Minimum Inhibitory Concentration” value reads like this: (EPI Conc. 0 μg/mL) 4 µg/mL; (EPI Conc. 0.625 μg/mL) 4 µg/mL; (EPI Conc. 1.25 μg/mL) 4 µg/mL; (EPI Conc. 2.5 μg/mL) 4 µg/mL; (EPI Conc. 5 μg/ mL) 4 µg/mL; (EPI Conc. 10 μg/mL) 4 µg/mL. For the same compound, the “Levofloxacin MIC Against P. aerugiuosa PAM1001 in Presence of Efflux Pump Inhibitor (EPI), Minimum Inhibitory Concentration” value reads like this: (EPI Conc. 20 μg/mL) 1 µg/mL; (EPI Conc. 40 μg/mL) 0.5 µg/mL.

As for `C[C@@H](N)C(=O)N[C@@H]1CN[C@@H](C(=O)N(CCC(C)(C)C)CC(=O)Nc2cnc3ccccc3c2)C1` [Compound M47], the “Levofloxacin MIC Against P. aerugiuosa PAM1001 in Presence of Efflux Pump Inhibitor (EPI), Minimum Inhibitory Concentration” value amounted to 4 µg/mL (EPI Conc. 0 μg/mL); 4 µg/mL (EPI Conc. 0.625 μg/mL); 4 µg/mL (EPI Conc. 1.25 μg/mL); 4 µg/mL (EPI Conc. 2.5 μg/mL); 4 µg/mL (EPI Conc. 5 μg/ mL); 4 µg/mL (EPI Conc. 10 μg/mL). Also, the “Levofloxacin MIC Against P. aerugiuosa PAM1001 in Presence of Efflux Pump Inhibitor (EPI), Minimum Inhibitory Concentration” value (EPI Conc. 20 μg/mL) was determined as 2 µg/mL and the “Levofloxacin MIC Against P. aerugiuosa PAM1001 in Presence of Efflux Pump Inhibitor (EPI), Minimum Inhibitory Concentration” value (EPI Conc. 40 μg/mL) worked out at 0.03 µg/mL.
